Where a name gives a salt, the structure may show the parent alone. Active and inactive are the calls of the source.
Columns and labels:
[1] = biological target: T1, Hepatocyte nuclear factor 4-alpha (Homo sapiens, UniProt P41235); format: functional, cell-based;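 note: biochemical luminescence-based dose-response counterscreen measuring inhibition of HNF4 dimerization, run alongside a screen for blockers of ABHD5–perilipin-5 interaction; split luciferase complementation of HNF4 fusion proteins in cell lysate measuring dimerization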
T1 sequence (P41235 whole entry): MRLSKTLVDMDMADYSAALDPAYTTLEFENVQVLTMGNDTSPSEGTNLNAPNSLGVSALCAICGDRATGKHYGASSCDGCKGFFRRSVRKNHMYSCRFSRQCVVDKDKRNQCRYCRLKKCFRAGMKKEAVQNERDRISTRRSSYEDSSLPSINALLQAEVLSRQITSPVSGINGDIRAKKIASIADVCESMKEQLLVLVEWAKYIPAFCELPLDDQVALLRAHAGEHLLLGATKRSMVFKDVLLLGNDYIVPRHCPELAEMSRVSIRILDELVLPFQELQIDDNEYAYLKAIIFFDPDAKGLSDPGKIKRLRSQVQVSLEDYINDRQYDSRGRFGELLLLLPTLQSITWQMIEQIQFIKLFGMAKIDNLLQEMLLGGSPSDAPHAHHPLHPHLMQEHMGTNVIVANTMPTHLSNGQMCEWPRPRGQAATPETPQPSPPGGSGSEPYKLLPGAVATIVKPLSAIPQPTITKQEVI

Genome polyprotein = Genome polyprotein (dengue virus type 2, UniProt P29990); assay: flavivirus cap methylation enzyme inhibition – biochemical, confirmation dose response, primary screen (AID 588689); format: functional
Chain of Genome polyprotein (P29990 2492-3391 limits assumed): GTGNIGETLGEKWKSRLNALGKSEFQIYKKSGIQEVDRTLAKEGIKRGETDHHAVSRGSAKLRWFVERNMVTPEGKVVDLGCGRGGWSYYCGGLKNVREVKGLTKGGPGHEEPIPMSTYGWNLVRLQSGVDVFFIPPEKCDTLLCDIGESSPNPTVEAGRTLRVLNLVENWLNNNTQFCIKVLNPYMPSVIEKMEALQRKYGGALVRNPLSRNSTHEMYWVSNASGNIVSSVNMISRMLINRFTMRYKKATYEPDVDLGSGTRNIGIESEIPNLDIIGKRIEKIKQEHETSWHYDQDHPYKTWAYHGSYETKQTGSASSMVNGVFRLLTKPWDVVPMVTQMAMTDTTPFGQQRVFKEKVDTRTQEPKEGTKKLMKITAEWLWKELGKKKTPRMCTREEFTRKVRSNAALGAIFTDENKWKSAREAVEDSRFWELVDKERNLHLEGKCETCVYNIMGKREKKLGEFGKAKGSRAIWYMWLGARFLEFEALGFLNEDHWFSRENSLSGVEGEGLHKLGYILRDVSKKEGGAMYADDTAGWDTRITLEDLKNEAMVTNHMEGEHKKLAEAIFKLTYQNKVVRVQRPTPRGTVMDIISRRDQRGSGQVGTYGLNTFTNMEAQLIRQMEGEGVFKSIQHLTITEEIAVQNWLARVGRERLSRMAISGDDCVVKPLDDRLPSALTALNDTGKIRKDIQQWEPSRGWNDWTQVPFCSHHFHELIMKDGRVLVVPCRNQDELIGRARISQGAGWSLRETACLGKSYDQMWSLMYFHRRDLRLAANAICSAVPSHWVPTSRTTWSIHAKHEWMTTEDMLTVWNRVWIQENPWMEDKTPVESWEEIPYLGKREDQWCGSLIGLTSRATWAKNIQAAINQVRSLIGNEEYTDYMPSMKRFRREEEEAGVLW

[2] = biological target: Nuclear receptor subfamily 5 group A member 2 (Homo sapiens, UniProt O00482); format: functional, cell-based;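 note: HEK293T cells transfected with LRH-1 and a StAR promoter luciferase reporter; potency for inhibitors that lower LRH-1 driven reporter light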
Chain of Nuclear receptor subfamily 5 group A member 2 (O00482 whole entry): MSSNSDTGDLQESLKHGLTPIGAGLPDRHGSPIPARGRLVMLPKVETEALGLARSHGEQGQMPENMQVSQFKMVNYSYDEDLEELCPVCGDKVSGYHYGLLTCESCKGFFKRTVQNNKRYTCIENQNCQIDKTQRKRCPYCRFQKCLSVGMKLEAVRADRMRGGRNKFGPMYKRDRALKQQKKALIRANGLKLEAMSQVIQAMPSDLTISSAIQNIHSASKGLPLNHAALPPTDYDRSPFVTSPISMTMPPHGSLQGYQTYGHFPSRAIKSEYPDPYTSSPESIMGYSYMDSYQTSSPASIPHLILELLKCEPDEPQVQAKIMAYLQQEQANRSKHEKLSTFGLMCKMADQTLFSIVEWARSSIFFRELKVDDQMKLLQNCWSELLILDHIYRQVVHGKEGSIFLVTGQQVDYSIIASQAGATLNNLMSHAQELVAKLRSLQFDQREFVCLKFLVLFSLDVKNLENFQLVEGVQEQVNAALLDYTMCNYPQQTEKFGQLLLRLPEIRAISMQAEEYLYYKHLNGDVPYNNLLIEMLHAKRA

Steroidogenic factor 1 = Steroidogenic factor 1 (Homo sapiens, UniProt Q13285); assay: Counterscreen for inverse agonists of the liver receptor homolog-1 (LRH-1; NR5A2): Luminescence-based cell-based high throughput dose response assay to identify inverse agonists of the Steroidogenic Factor 1 Nuclear Receptor (SF1; NR5A1).; format: functional
Chain of Steroidogenic factor 1 (Q13285 whole entry): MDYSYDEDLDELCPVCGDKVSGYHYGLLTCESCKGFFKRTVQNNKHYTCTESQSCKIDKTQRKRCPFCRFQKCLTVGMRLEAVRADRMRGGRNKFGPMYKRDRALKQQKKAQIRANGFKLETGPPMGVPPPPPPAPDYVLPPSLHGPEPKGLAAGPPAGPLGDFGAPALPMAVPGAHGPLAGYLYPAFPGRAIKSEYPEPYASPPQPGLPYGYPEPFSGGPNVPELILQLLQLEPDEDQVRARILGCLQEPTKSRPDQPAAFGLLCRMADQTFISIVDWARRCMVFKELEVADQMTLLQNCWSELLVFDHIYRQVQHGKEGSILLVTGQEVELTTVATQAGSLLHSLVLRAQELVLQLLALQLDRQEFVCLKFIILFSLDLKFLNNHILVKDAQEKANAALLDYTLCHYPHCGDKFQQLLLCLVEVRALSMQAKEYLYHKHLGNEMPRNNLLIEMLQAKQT

[3] = nonselective StAR promoter luciferase inhibitors – cell-based, luminescence, luciferase reporter, counter-screen for LRH-1 inverse agonist project, dose response (AID 651969); format: functional
[4] = biological target: T2, Sentrin-specific protease 7 (Homo sapiens, UniProt Q9BQF6); assay: inhibition of human SENP7 cleavage activity – biochemical, luminescence, SAR follow-up (AID 504497); format: functional
T2 sequence (Q9BQF6 whole entry): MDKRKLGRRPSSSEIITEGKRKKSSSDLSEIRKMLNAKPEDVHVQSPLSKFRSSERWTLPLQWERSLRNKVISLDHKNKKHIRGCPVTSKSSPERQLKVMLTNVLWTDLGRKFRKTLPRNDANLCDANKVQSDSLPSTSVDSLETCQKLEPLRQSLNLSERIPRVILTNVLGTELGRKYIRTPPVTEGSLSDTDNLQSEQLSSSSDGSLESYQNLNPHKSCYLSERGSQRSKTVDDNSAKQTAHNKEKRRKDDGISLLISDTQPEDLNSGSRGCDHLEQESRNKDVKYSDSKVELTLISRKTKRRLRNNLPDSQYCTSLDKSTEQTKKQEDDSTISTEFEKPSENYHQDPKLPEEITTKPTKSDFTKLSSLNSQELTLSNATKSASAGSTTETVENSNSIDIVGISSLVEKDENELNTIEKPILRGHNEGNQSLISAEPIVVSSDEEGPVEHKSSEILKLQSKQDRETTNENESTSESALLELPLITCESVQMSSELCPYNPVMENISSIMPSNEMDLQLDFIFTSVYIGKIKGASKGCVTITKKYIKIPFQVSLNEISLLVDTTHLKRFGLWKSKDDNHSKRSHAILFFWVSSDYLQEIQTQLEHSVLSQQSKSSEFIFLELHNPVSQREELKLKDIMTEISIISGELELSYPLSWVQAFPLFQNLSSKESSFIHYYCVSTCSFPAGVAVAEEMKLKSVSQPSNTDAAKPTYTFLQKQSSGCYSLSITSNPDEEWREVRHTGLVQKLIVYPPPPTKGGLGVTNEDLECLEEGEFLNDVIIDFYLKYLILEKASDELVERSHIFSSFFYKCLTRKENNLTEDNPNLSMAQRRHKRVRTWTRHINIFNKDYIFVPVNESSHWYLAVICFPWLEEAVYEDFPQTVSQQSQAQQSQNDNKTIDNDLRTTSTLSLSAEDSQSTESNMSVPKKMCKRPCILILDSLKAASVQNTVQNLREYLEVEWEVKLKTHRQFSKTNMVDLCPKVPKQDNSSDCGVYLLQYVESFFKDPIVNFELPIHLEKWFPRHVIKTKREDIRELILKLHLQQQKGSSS

[5] = biological target: T3, Sentrin-specific protease 8 (Homo sapiens, UniProt Q96LD8); assay: inhibition of human SENP8 cleavage activity – biochemical, luminescence, SAR follow-up (AID 504501); format: functional
T3 sequence (Q96LD8 whole entry): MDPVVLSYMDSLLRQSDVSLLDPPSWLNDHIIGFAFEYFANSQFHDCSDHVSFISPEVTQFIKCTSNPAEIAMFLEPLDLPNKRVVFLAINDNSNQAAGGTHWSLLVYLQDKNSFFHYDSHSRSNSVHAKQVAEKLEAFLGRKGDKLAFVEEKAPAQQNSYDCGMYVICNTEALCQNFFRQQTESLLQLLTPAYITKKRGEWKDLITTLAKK

[6] = biological target: T4, Sentrin-specific protease 6 (Homo sapiens, UniProt Q9GZR1); assay: SAR Analysis of small molecule inhibitors of Sentrin-specific protease 6 (SENP6) using a Luminescent assay. [Related pubchem assays (depositor defined):AID2582, AID2599]; format: functional
T4 sequence (Q9GZR1 whole entry): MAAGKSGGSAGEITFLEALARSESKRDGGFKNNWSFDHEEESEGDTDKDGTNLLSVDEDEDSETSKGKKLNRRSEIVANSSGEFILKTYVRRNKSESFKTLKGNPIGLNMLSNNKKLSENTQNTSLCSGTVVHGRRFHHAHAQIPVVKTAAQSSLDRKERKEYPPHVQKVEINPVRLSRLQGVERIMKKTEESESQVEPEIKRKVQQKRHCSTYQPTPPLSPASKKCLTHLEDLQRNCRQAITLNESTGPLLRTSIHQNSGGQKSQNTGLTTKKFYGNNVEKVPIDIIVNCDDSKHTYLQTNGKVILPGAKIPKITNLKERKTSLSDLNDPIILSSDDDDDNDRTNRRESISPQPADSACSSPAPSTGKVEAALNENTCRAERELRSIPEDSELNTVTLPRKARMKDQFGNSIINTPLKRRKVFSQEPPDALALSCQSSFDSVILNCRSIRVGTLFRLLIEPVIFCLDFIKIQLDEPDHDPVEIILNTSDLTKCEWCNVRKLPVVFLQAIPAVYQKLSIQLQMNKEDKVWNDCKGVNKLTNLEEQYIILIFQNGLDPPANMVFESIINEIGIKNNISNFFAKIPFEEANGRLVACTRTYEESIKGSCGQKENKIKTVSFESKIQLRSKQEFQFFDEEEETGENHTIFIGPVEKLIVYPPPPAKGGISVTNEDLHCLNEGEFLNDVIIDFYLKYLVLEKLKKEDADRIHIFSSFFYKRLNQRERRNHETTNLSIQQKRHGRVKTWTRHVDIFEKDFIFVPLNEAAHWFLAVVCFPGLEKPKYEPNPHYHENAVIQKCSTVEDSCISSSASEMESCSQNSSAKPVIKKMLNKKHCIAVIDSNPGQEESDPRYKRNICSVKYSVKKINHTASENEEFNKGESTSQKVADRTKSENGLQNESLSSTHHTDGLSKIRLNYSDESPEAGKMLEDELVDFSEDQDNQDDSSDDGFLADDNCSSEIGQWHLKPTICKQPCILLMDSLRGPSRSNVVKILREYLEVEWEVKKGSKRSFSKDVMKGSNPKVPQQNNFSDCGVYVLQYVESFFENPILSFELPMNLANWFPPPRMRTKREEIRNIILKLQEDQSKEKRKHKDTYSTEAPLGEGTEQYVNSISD

Caspase-3 = biological target: T5, Caspase-3 (Homo sapiens, UniProt P42574); assay: SAR Analysis of small molecule inhibitors of Sentrin-specific proteases (SENPs) using a Caspase-3 Selectivity assay. [Related pubchem assays (depositor defined):AID2540, AID2599, AID434973, AID489001]; format: functional
T5 sequence (P42574 whole entry): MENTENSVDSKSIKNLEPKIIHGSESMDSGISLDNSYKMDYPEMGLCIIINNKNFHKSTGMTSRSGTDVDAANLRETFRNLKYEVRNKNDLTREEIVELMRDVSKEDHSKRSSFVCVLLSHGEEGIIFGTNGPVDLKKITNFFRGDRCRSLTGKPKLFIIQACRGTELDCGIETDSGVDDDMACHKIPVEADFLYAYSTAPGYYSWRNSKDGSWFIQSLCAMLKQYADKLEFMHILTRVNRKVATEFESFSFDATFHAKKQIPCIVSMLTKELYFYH

[7] = biological target: T6, Probable nicotinate-nucleotide adenylyltransferase (Staphylococcus aureus (strain N315), UniProt P65502); format: functional, Staphylococcus aureus subsp. aureus N315;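 for IC50 Mean: confirmatory dose-response retesting of NadD inhibitor hits first found in an ultra-high-throughput screen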
T6 sequence (P65502 whole entry): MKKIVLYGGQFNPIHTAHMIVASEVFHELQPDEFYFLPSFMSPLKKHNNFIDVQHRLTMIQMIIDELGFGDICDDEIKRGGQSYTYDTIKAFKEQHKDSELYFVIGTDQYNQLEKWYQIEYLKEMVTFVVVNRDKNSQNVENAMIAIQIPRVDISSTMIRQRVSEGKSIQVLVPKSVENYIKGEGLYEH

[8] = biological target: T6, Probable nicotinate-nucleotide adenylyltransferase; format: functional, Staphylococcus aureus subsp. aureus N315; settings: read-out: IC50_Mean
Melanocortin receptor 4 = Melanocortin receptor 4 (Homo sapiens, UniProt P32245); format: functional, cell-based;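 note: Cell-based assay with luminescence read-out, confirmatory dose-response testing for agonist activity of biased ligands at MC4R; human U2OS cells with tagged receptor and beta-arrestin; potency of agonists that increase receptor coupling to beta-arrestin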
Chain of Melanocortin receptor 4 (P32245 whole entry): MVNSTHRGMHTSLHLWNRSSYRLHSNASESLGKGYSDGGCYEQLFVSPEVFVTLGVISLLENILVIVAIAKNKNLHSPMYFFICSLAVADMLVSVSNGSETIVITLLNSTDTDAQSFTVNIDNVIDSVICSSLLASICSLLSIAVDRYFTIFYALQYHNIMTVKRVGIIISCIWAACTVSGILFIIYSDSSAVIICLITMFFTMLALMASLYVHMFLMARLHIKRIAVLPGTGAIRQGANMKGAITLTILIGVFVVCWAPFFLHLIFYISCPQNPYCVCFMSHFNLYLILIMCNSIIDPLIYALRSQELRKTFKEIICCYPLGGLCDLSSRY

Streptococcus = assay: GAS UMAA2166 growth inhibition – luminescence, BacTiterGlo, counter-screen for streptokinase expression inhibitor project, dose response (AID 1915); format: functional, organism-based;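 note: potency for reduction of bacterial viability or growth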
[9] = system: Streptococcus sp. 'group A'; assay: Streptococcus pyogenes SK(-)GAS viability under kanamycin – luminescence, BacTiterGlo, confirmation, counter-screen for streptokinase expression inhibitor project, dose response (AID 1900); format: functional, organism-based
[10] = Trypanosoma cruzi growth suppression in host cells – NIH3T3 host cells, beta-gal luminescence, confirmation (AID 2044); format: functional, cell-based;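 note: intracellular parasites grown in NIH/3T3 mouse fibroblasts as host cells; luminescent beta-galactosidase reporter signal from transgenic T. cruzi replicating inside host cells; inhibitors lower the luminescence signal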
[11] = NIH3T3 cell viability loss – ATP luminescence, mouse fibroblasts, counter-screen, dose response (AID 2010); format: functional, cell-based;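 note: cells exposed to compound for about 90 hours before reading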
Streptokinase A = biological target: T7, Streptokinase A (Streptococcus pyogenes serotype M1, UniProt P10520); assay: viability-normalized secreted streptokinase activity reduction – plasminogen activation absorbance, OD405, dose response (AID 1914); format: functional, Streptococcus pyogenes M1 GAS;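 note: secreted streptokinase activity via plasminogen activation per viability signal from cell pellet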
T7 sequence (P10520 whole entry): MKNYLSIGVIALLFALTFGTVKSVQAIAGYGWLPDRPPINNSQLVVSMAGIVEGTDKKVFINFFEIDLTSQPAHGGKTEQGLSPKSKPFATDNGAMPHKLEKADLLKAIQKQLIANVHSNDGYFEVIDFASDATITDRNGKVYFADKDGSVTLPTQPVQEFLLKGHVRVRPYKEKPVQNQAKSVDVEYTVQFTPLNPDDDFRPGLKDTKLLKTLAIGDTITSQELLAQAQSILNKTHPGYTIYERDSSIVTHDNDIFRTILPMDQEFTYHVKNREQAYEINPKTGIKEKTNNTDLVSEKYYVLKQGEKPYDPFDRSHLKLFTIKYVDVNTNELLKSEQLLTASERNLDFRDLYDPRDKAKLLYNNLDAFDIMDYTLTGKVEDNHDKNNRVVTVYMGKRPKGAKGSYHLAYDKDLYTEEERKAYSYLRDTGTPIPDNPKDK

O=C1NC(=O)N(c2ccccc2F)C(=O)/C1=C/c1ccc(Oc2ccc([N+](=O)[O-])cn2)cc1
IC50 [1]: 1.88 µM (active)
IC50 (Genome polyprotein): 56.1 µM (active)

Cc1ccc(C)c(NC(=O)CSc2nnc(-c3[nH]nc4ccccc34)o2)c1
IC50 [2]: 53.5 µM (inactive)
IC50 (Steroidogenic factor 1): 5.07 µM (active)
IC50 [3]: 35.9 µM (inactive)

CCOc1ccc(CCNC(=O)CN2C(=O)NC3(CCc4ccccc43)C2=O)cc1OCC (configuration not stated)
IC50 [2]: 16.7 µM (inactive)
IC50 (Steroidogenic factor 1): 4.33 µM (active)
IC50 [3]: 35.9 µM (inactive)

Cc1ccc2nc(NC(=O)c3cc(=O)c4cc(C)c(C)cc4o3)sc2c1
IC50 [4]: > 99 µM (inactive)
IC50 [5]: > 99 µM (inactive)
IC50 [6]: > 99 µM (inactive)
IC50 (Caspase-3): > 99 µM (inactive)

Cc1ccc(-n2nc3c(c2NC(=O)c2ccc(Br)o2)CSC3)c(C)c1
IC50 [7]: 2.11 µM (active)
IC50 [8]: 8.03 µM (active)

CCOc1ccc(Cc2nnc(SCC(=O)Nc3ccc(C(C)=O)cc3)nc2O)cc1
IC50 [2]: 13.5 µM (inactive)
IC50 (Steroidogenic factor 1): 5.1 µM (active)
IC50 [3]: 35.9 µM (inactive)

Cc1ccc(NC(=O)c2ncn(CCCN3CCN(Cc4cccc5ccccc45)CC3)n2)cc1C
EC50 (Melanocortin receptor 4): > 89.2 µM (inactive)

CC(C)CC(=O)Nc1ccc(-c2nc3cc(Cl)ccc3s2)cc1
IC50 [4]: 82.7 µM (active)
IC50 [5]: > 99 µM (inactive)
IC50 [6]: > 99 µM (inactive)
IC50 (Caspase-3): > 99 µM (inactive)

Cc1cccnc1C(NC(=O)C1CCN(CCOc2ccc(Cl)cc2Cl)CC1)c1ccc(Cl)cc1 (configuration not stated)
EC50 (Melanocortin receptor 4): > 89.2 µM (inactive)

NC(Cc1ccc(C(F)(F)F)cc1)c1csc(Nc2nccc(C(F)(F)F)n2)n1 (configuration not stated)
EC50 (Melanocortin receptor 4): > 89.2 µM (inactive)

COc1ccc(CCNC(=O)CN2C(=O)NC3(CCCCC3)C2=O)cc1
IC50 [2]: 16.5 µM (inactive)
IC50 (Steroidogenic factor 1): 1.74 µM (active)
IC50 [3]: 35.9 µM (inactive)

Fc1cc(F)cc(-c2noc(/C=C/c3ccccc3Cl)n2)c1
IC50 [4]: > 99 µM (inactive)
IC50 [5]: > 99 µM (inactive)
IC50 [6]: > 99 µM (inactive)
IC50 (Caspase-3): > 99 µM (inactive)

O=C(NC1CCCCC1)C(c1ccccc1F)n1c(=O)c(-c2ccco2)nc2ccccc21 (configuration not stated)
IC50 [1]: 1.84 µM (active)

Nc1ccc(-c2noc(/C=C/c3ccccc3)n2)cc1[N+](=O)[O-]
IC50 [4]: > 99 µM (inactive)
IC50 [5]: > 99 µM (inactive)
IC50 [6]: > 99 µM (inactive)
IC50 (Caspase-3): > 99 µM (inactive)

CN(C)CCOc1ccc(/C(=C(/CCCl)c2ccccc2)c2ccccc2)cc1 [TOREMIFENE CITRATE]
EC50 (Streptococcus): 8.17 µM (active)
IC50 [1]: 7.87 µM (active)
EC50 [9]: 5.82 µM (active)
EC50 [10]: 28.4 µM (active)
EC50 [11]: > 60 µM (not active)
EC50 (Streptokinase A): 25.9 µM (active)
